Our source for the TGI and GI50 values is PubChem BioAssay (NCI).

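Assay format: 96-well plates, 48-hour exposure. GI50 marks 50% less growth. TGI marks complete inhibition of growth.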 Where only a bound is given, the exact number is not on record here.

What all share (assay): inhibition of tumour cell growth, NCI panel, 48 h
Assay [1] concerns 786-0 renal.
Assay [2] concerns OVCAR-3 ovarian.
For assay [3], the system named is A498 renal.
Assay [4] relates to SNB-75 CNS.
Assay [5] concerns MOLT-4 leukemia.
Assay [6] has as its system KM12 colon.
Assay [7] has as its system SF-268 CNS.
Assay [8] relates to HCT-116 colon.
In assay [9] the test system is EKVX NSCLC.
In assay [10] the test system is OVCAR-5 ovarian.
For assay [11], the system named is HOP-92 NSCLC.
Assay [12] has as its system TK-10 renal.

Take `CN1C(=O)N(c2nc3ccccc3[nH]2)C(C)(C)C1=O`: the TGI in assay [1], in [2], in assay [3], in [4], in assay [5] and in assay [6] was greater than 100 µM in each case. Besides, the TGI in assay [7], in assay [8] and in assay [9] was greater than 100 µM throughout.

Turning to `Clc1ccc(N2N=C(c3cccc(Nc4ccncc4)c3)CC2c2ccc(Br)cc2)cc1` (centres undefined), the GI50 in assay [10] is 1.66 µM; in assay [2], 1.78 µM; in assay [3], 1.07 µM; in [4], 1.41 µM; in [5], 2.34 µM; in [6], 1.73 µM. In [11], the GI50 was 1.39 µM. In addition, the TGI in [10] was 3.1 µM; in assay [2], 3.29 µM; in assay [3] it was 2.3 µM; in assay [4] it was 2.9 µM; in [5] it was 6.17 µM; in assay [6] it was 3.27 µM. This compound yielded a TGI in assay [11] of 2.85 µM.

Regarding `COc1ccc(/C=C/c2nc(=S)[nH][nH]2)cc1OC`, the TGI in assay [10], in assay [1], in assay [2], in [3], in assay [4] and in [5] was greater than 100 µM throughout. Besides, the TGI in assay [12], in assay [7], in assay [8] and in assay [11] was greater than 100 µM in each case.

As to `CCC(=O)CCC1=Nc2nnc(CCCCc3nnc4n3C(=O)C(CCC(=O)CC)=N4)n2C1=O`, the TGI in assay [10], in assay [1], in assay [2], in [3], in assay [4] and in assay [5] was greater than 100 µM each time. Besides, the TGI in [6], in assay [12], in assay [7], in assay [9] and in assay [11] was greater than 100 µM each time.

Turning to `CCOC(OC1=C(C#N)CCCC1)C(CC)[Se]c1ccccc1[N+](=O)[O-]` (centres undefined), the TGI in assay [10] was 66.8 µM; in assay [1] it was 34.2 µM; in assay [2] it was 95.4 µM; in [3] it was greater than 100 µM; in assay [4] it was 49.5 µM; in [5], 71.2 µM. The TGI in assay [6] was 43.1 µM; in [12], greater than 100 µM; in assay [7], 43.6 µM; in assay [8], 36.8 µM; in assay [9], 70 µM; in [11], 40.6 µM.

Regarding `CC(O)C1OC(n2ccc(=O)[nH]c2=O)CC1n1cncn1` (centres undefined), the TGI in [10], in [1], in assay [2], in assay [3], in [4] and in assay [5] was greater than 100 µM throughout. Also, the TGI in assay [6], in assay [12], in assay [7], in assay [8] and in assay [9] was greater than 100 µM each time. Moreover, in assay [4], the GI50 is greater than 100 µM.

`C[Si](C)(C)/C=C/CN1C(=O)CCC1=O`: the TGI in assay [10], in assay [2], in assay [3], in assay [4], in assay [6] and in assay [12] was greater than 100 µM each time. In addition, the TGI in assay [7], in assay [8], in [9] and in [11] was greater than 100 µM throughout.

For `Cc1ccc(O)c(C(c2cc(C)ccc2O)c2cc([N+](=O)[O-])ccc2O)c1`, the TGI in [10] worked out at 28.8 µM; in assay [1], 33.9 µM; in [2], 25.4 µM; in assay [3] it was 39.5 µM; in [4], 21.2 µM; in [5] it was 35 µM. Besides, the TGI in assay [6] was found to be 21.2 µM; in assay [12], 34.8 µM; in [7], 24.6 µM; in [8], 56.1 µM; in [9], 32.3 µM; in assay [11], 38.9 µM.

As to `CC(C)=CCOc1ccc(-c2coc3cc4c(c(O)c3c2=O)C=CC(C)(C)O4)cc1`, the TGI in [10] was greater than 100 µM; in assay [1], greater than 100 µM; in assay [2], greater than 100 µM; in [3] it was 98.7 µM; in assay [5], greater than 100 µM; in assay [6] it was greater than 100 µM. Further, the TGI in [12], in assay [7], in assay [8] and in assay [9] was greater than 100 µM throughout.

Take `C/C(=N/N)c1sc(-c2nc(C)c(/C(C)=N\N)s2)nc1C`: the TGI in [10] was greater than 100 µM; in assay [1], greater than 100 µM; in assay [2], greater than 100 µM; in assay [3], greater than 100 µM; in assay [4], greater than 100 µM; in [5] it was 83.3 µM. Also, the TGI in assay [6], in assay [12], in assay [7], in assay [8], in assay [9] and in assay [11] was greater than 100 µM in each case.

With `O=C1C2C3C=C4c5ccccc5N(c5ccccc5)C4([C@@H]2C(=O)N1c1ccc(F)cc1)[C@H]1C(=O)N(c2ccc(F)cc2)C(=O)[C@@H]31` (some centres undefined), the TGI in assay [10], in assay [1], in [2], in [4], in [5] and in assay [6] was greater than 100 µM in each case. Further, the TGI in assay [12], in assay [7], in assay [9] and in assay [11] was greater than 100 µM each time.

For the compound `CC1OC(CC2C=CCc3c(O)c4c(c(O)c32)C(=O)c2ccccc2C4=O)CC(NC(=O)C(F)(F)F)C1O` (centres undefined), the TGI in assay [10] was greater than 100 µM; in [1] it was 23.2 µM; in assay [2] it was 19.2 µM; in assay [3] it was 16.5 µM; in assay [4] it was 5.8 µM; in assay [5], 22.5 µM. Besides, the TGI is 61.4 µM in assay [6]; 10.9 µM in [12]; 22.2 µM in [7]; 11.4 µM in assay [8]; 25.7 µM in assay [9]; 8.39 µM in assay [11].
